Test results from patent US8148373B2, “Compounds” (AstraZeneca AB, priority 2008, dated 2012).
Where a name gives a salt, the structure may show the parent alone.

Experiments:
[1] = molecular target: T1, Adrenergic β2 (H292 cells) (Homo sapiens, UniProt P07550); assay: Assay for Adrenergic β2 Mediated cAMP Production (concentration response, AlphaScreen cAMP detection); assay type: cell-based; conditions: for EC50: cAMP production, 60 minutes at room temperature, 300 μM rolipram, read-out: β2 pEC50 (converted); for β2 Intrinsic activity: fraction relative to the maximum activity determined for formoterol
T1 construct: endogenous in cells; host or cells: H292 cells
Procedure: Assay for Adrenergic β2 Mediated Camp Production
H292 cells are grown in 225 cm2 flasks incubator at 37° C., 5% CO2 in RPMI medium containing 10% (v/v) FBS (foetal bovine serum) and 2 mM L-glutamine.
Adherent H292 cells are removed from tissue culture flasks by treatment with Accutase™ cell detachment solution for 15 minutes. Flasks are incubated for 15 minutes in a humidified incubator at 37° C., 5% CO2. Detached cells are re-suspended in RPMI media (containing 10% (v/v) FBS and 2 mM L-glutamine) at 0.1×10^6 cells per mL. 10000 cells in 100 μL are added to each well of a tissue-culture-treated 96-well plate and the cells incubated overnight in a humidified incubator at 37° C., 5% CO2. The culture media is removed and cells are washed twice with 100 μL assay buffer and replaced with 50 μL assay buffer (HBSS solution containing 10 mM HEPES pH7.4 and 5 mM glucose). Cells are rested at room temperature for 20 minutes after which time 25 μL of rolipram (1.2 mM made up in assay buffer containing 2.4% (v/v) dimethylsulphoxide) is added. Cells are incubated with rolipram for 10 minutes after which time test compounds are added and the cells are incubated for 60 minutes at room temperature. The final rolipram concentration in the assay is 300 μM and final vehicle concentration is 1% (v/v) dimethylsulphoxide. The reaction is stopped by removing supernatants, washing once with 100 μL assay buffer and replacing with 50 μL lysis buffer. The cell monolayer is frozen at −80° C. for 30 minutes (or overnight).
AlphaScreen™ cAMP Detection
The concentration of cAMP (cyclic adenosine monophosphate) in the cell lysate is determined using AlphaScreen™ methodology. The frozen cell plate is thawed for 20 minutes on a plate shaker then 10 μL of the cell lysate is transferred to a 96-well white plate. 40 μL of mixed AlphaScreen™ detection beads pre-incubated with biotinylated cAMP, is added to each well and the plate incubated at room temperature for 3 hours in the dark. The AlphaScreen™ signal is measured using an EnVision spectrophotometer (Perkin-Elmer Inc.) with the recommended manufacturer's settings. cAMP concentrations are determined by reference to a calibration curve determined in the same experiment using standard cAMP concentrations. Concentration response curves for agonists are constructed and data is fitted to a four parameter logistic equation to determine both the pEC50 and Intrinsic Activity. Intrinsic Activity is expressed as a fraction relative to the maximum activity determined for formoterol in each experiment.

[2] = molecular target: T2, human muscarinic acetylcholine M3 receptor (M3-ACh) (Homo sapiens, UniProt P20309); assay: Muscarinic 3 Receptor Binding Assay ([3H]NMS competition, SPA); conditions: [3H]NMS 0.1 nM, CHO-K1 cell membranes, 16 hours at room temperature; read-out: M3 pIC50 (converted)
T2 construct: expressed in transfected cells; host or cells: CHO-K1 (Chinese Hamster Ovary) cell membranes
Procedure: Muscarinic 3 Receptor Binding Assay
The affinity (pIC50) of compounds binding to the M3 receptor is determined by competition binding of [^3H]N-methyl scopolamine (NMS) to CHO-K1 (Chinese Hamster Ovary) cell membranes expressing the human muscarinic acetylcholine M3 receptor (M3-ACh) in a scintillation proximity assay (SPA) format.
SPA beads are precoated with membranes and then incubated at 2 mg of beads per well with serial dilutions of compounds of the invention, [^3H]NMS at 0.1 nM, quarter Kd (experimentally determined dissociation constant) and assay buffer (20 mM HEPES pH 7.4 containing 5 mM MgCl2). The assay is conducted in a final volume of 200 μL, in the presence of 1% (v/v) dimethyl sulphoxide (DMSO). Total binding of [^3H]NMS is determined in the absence of competing compound and non-specific binding of [^3H]NMS is determined in the presence of 1 μM atropine. The plates are incubated for 16 hours at room temperature and then read on Wallac Microbeta™ using a normalised ^3H protocol. The pIC50, defined as the negative logarithm of the molar concentration of compound required for 50% reduction in specific [^3H]-NMS binding, is determined.

T1 sequence (P07550 whole entry): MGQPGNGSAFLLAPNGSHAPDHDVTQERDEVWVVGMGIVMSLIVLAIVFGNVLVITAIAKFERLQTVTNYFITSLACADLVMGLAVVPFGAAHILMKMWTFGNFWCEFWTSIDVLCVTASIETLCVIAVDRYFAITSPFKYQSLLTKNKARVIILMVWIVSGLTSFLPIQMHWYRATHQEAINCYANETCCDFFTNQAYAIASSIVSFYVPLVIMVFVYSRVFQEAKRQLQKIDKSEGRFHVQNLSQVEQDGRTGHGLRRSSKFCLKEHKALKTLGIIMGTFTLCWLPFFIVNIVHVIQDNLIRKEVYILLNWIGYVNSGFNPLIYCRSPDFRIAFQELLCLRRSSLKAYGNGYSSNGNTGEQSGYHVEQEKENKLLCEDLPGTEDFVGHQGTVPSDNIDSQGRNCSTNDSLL
T2 sequence (P20309 whole entry): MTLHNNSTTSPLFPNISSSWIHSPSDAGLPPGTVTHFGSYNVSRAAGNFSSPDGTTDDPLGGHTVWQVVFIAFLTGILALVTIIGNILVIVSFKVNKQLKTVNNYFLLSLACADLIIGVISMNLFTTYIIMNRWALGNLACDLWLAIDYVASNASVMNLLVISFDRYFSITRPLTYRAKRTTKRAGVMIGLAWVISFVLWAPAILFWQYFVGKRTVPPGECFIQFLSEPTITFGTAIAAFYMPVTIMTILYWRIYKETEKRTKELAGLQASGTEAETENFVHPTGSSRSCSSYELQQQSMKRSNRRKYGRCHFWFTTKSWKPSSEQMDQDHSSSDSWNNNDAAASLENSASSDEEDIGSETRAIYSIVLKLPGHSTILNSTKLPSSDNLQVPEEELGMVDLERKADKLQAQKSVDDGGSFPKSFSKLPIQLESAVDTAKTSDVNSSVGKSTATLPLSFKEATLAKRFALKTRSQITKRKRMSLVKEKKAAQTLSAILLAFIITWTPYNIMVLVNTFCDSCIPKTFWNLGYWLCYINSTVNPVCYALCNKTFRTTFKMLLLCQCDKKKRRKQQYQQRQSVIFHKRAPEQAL

Compound | EC50 [1] [nM] | β2 Intrinsic activity [1] | IC50 [2] [nM]
Cc1nc(C(=O)N2CCOC3(CCN(CCOc4ccc(CCNC[C@H](O)c5ccc(O)c6[nH]c(=O)sc56)cc4)CC3)C2)cs1 [Example 3, (R)-4-Hydroxy-7-(1-hydroxy-2-(4-(2-(4-(2-methylthiazole-4-carbonyl)-1-oxa-4,9-diazaspiro[5.5]undecan-9-yl)ethoxy)phenethylamino)ethyl)benzo[d]thiazol-2(3H)-one dihydrochloride] | 7.94 | 1.0 | 1
CC(C)c1nc(C(=O)N2CCOC3(CCN(CCCCCCC(C)(C)CCNC[C@H](O)c4ccc(O)c5[nH]c(=O)sc45)CC3)C2)cs1 [Example 279, (R)-4-Hydroxy-7-(1-hydroxy-2-(9-(4-(2-isopropylthiazole-4-carbonyl)-1-oxa-4,9-diazaspiro[5.5]undecan-9-yl)-3,3-dimethylnonylamino)ethyl)benzo[d]thiazol-2(3H)-one formate] | 316 | 0.9 | 7.94
CCc1cc(C(=O)N2CCOC3(CCN(Cc4cccc(CCNC[C@H](O)c5ccc(O)c6[nH]c(=O)sc56)c4F)CC3)C2)cs1 [Example 91, (R)-7-(2-(3-((4-(5-Ethylthiophene-3-carbonyl)-1-oxa-4,9-diazaspiro[5.5]undecan-9-yl)methyl)-2-fluorophenethylamino)-1-hydroxyethyl)-4-hydroxybenzo[d]thiazol-2(3H)-one ditrifluoroacetate] | 1.26 | 0.7 | 2
CCCc1nc(C(=O)N2CCOC3(CCN(Cc4cccc(CCNC[C@H](O)c5ccc(O)c6[nH]c(=O)sc56)c4)CC3)C2)cs1 [Example 87, (R)-4-Hydroxy-7-(1-hydroxy-2-(3-((4-(2-propylthiazole-4-carbonyl)-1-oxa-4,9-diazaspiro[5.5]undecan-9-yl)methyl)phenethylamino)ethyl)benzo[d]thiazol-2(3H)-one ditrifluoroacetate] | 3.16 | 0.9 | 0.501
CC(C)Cc1nc(C(=O)N2CCOC3(CCN(Cc4cccc(CCNC[C@H](O)c5ccc(O)c6[nH]c(=O)sc56)c4F)CC3)C2)cs1 [Example 72, (R)-7-(2-(2-Fluoro-3-((4-(2-isobutylthiazole-4-carbonyl)-1-oxa-4,9-diazaspiro[5.5]undecan-9-yl)methyl)phenethylamino)-1-hydroxyethyl)-4-hydroxybenzo[d]thiazol-2(3H)-one ditrifluoroacetate] | 7.94 | 0.8 | 10
O=C(c1ccc2occc2c1)N1CCOC2(CCN(Cc3cccc(CCNC[C@H](O)c4ccc(O)c5[nH]c(=O)sc45)c3)CC2)C1 [Example 266, (R)-7-(2-(3-((4-(Benzofuran-5-carbonyl)-1-oxa-4,9-diazaspiro[5.5]undecan-9-yl)methyl)phenethylamino)-1-hydroxyethyl)-4-hydroxybenzo[d]thiazol-2(3H)-one ditrifluoroacetic acid] | 7.94 | 0.7 | 0.316
O=C(c1csc(C2CCC2)n1)N1CCOC2(CCN(Cc3cc(F)cc(CCNC[C@H](O)c4ccc(O)c5[nH]c(=O)sc45)c3)CC2)C1 [Example 58, (R)-7-(2-(3-((4-(2-Cyclobutylthiazole-4-carbonyl)-1-oxa-4,9-diazaspiro[5.5]undecan-9-yl)methyl)-5-fluorophenethylamino)-1-hydroxyethyl)-4-hydroxybenzo[d]thiazol-2(3H)-one ditrifluoroacetate] | 10 | 0.9 | 6.31
CC(C)c1cccc(C(=O)N2CCOC3(CCN(Cc4cccc(CCNC[C@H](O)c5ccc(O)c6[nH]c(=O)sc56)c4F)CC3)C2)n1 [Example 85, (R)-7-(2-(2-Fluoro-3-((4-(6-isopropylpicolinoyl)-1-oxa-4,9-diazaspiro[5.5]undecan-9-yl)methyl)phenethylamino)-1-hydroxyethyl)-4-hydroxybenzo[d]thiazol-2(3H)-one ditrifluoroacetate] | 7.94 | 0.8 | 50.1
CC(C)c1nc(C(=O)N2CCOC3(CCN(CCCCCCSCCNC[C@H](O)c4ccc(O)c5[nH]c(=O)sc45)CC3)C2)cs1 [Example 101, (R)-4-Hydroxy-7-(1-hydroxy-2-(2-(6-(4-(2-isopropylthiazole-4-carbonyl)-1-oxa-4,9-diazaspiro[5.5]undecan-9-yl)hexylthio)ethylamino)ethyl)benzo[d]thiazol-2(3H)-one formate] | 158 | 1 | 0.316
O=C(c1csc(CC(F)(F)F)n1)N1CCOC2(CCN(Cc3cccc(CCNC[C@H](O)c4ccc(O)c5[nH]c(=O)sc45)c3F)CC2)C1 [Example 67, (R)-7-(2-(2-Fluoro-3-((4-(2-(2,2,2-trifluoroethyl)thiazole-4-carbonyl)-1-oxa-4,9-diazaspiro[5.5]undecan-9-yl)methyl)phenethylamino)-1-hydroxyethyl)-4-hydroxybenzo[d]thiazol-2(3H)-one ditrifluoroacetate] | 15.8 | 0.9 | 3.16
Cc1nc(C(=O)N2CCOC3(CCN(Cc4ccc(CCNC[C@H](O)c5ccc(O)c6[nH]c(=O)ccc56)s4)CC3)C2)cs1 [Example 14, (R)-8-Hydroxy-5-(1-hydroxy-2-(2-(5-((4-(2-methylthiazole-4-carbonyl)-1-oxa-4,9-diazaspiro[5.5]undecan-9-yl)methyl)thiophen-2-yl)ethylamino)ethyl)quinolin-2(1H)-one ditrifluoroacetate] | 5.01 | 0.9 | 6.31
CC(CCCCCCCCN1CCC2(CC1)CN(C(=O)c1csc(C(C)C)n1)CCO2)NC[C@H](O)c1ccc(O)c2[nH]c(=O)sc12 (stereo partly drawn) [Example 280, (R)-4-Hydroxy-7-(1-hydroxy-2-(10-(4-(2-isopropylthiazole-4-carbonyl)-1-oxa-4,9-diazaspiro[5.5]undecan-9-yl)decan-2-ylamino)ethyl)benzo[d]thiazol-2(3H)-one formate] | 5.01 | 1.2 | 0.794
Cc1nc2cc(C(=O)N3CCOC4(CCN(Cc5cc(CCNC[C@H](O)c6ccc(O)c7[nH]c(=O)sc67)cs5)CC4)C3)ccc2s1 [Example 49, (R)-4-Hydroxy-7-(1-hydroxy-2-(2-(5-((4-(2-methylbenzo[d]thiazole-5-carbonyl)-1-oxa-4,9-diazaspiro[5.5]undecan-9-yl)methyl)thiophen-3-yl)ethylamino)ethyl)benzo[d]thiazol-2(3H)-one ditrifluoroacetate] | 7.94 | 0.9 | 39.8
CCC(CC)c1nc(C(=O)N2CCOC3(CCN(Cc4cccc(CCNC[C@H](O)c5ccc(O)c6[nH]c(=O)ccc56)c4)CC3)C2)cs1 [Example 274, (R)-8-Hydroxy-5-(1-hydroxy-2-(3-((4-(2-(pentan-3-yl)thiazole-4-carbonyl)-1-oxa-4,9-diazaspiro[5.5]undecan-9-yl)methyl)phenethylamino)ethyl)quinolin-2(1H)-one ditrifluoroacetate] | 25.1 | 1.0 | 2.51
